Reference: US8691851B2, “Lanthanide metal complexes useful in treating cancer” (National University of Singapore, priority 2009, dated 2014)

Experiments:
Type in all cases: cell-based
[1] = system: SHEP-1 and MDA-MB-231 cancer cells; experiment: Morphological changes of cancer cells; settings: 10 mM 3MA, then 5 μM (SHEP-1) or 10 μM (MDA-MB-231) C19H24N3O5S5Pr
LC3 II = LC3 II formation by Western blot; settings: SHSY5Y cells, 5 or 10 mM 3MA for 2 hours, then 10 uM C19H24N3O5S5Pr for 7 hours
PPARγ = target: T1, PPARγ (Homo sapiens, UniProt P37231); set-up: endogenous in cells; host or cells: SHSY5Y, SHEP1 / SHEP-1 (neuroblastoma); settings: SHSY5Y and SHEP1 cells in 10% serum, 0 to 10 μM, 18 hours
T1 sequence (P37231 1-505): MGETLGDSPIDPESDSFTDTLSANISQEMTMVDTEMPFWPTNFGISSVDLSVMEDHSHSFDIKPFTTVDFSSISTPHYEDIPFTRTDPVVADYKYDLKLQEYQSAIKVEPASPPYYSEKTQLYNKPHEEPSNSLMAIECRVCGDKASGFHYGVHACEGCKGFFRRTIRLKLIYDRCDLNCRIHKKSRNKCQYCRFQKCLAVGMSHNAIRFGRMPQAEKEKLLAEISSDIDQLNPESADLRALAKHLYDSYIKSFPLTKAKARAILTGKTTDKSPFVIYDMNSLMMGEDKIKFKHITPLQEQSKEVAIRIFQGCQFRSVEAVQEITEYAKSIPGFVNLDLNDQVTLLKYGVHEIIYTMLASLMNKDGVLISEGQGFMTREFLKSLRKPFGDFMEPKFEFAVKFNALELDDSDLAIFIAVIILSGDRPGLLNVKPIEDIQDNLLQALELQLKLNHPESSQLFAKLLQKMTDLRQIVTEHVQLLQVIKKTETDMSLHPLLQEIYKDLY
Experimental: To determine if C19H24N3O5S5Pr activates PPARγ, SHSY5Y and SHEP1 neuroblastoma cells were transiently co-transfected with a 3×PPRE luciferase plasmid and renilla plasmid for transfection efficiency. Forty eight hours following transfection, the cells were exposed to increased concentrations (0 to 10 μM) of 15d-PGJ2 and C19H24N3O5S5Pr for 18 hours. The fold increase in luciferase activity correlates with the PPARγ activity of the cell. PPARγ activity is determined by calculating the RLU/renilla/μg total protein.
To assess if C19H24N3O5S5Pr activation of PPARγ is dependent on expression of PPARγ neuroblastoma cells, neuroblastoma cells SHEP1 and SHSY5Y were transiently co-transfected with a 3×PPRE luciferase plasmid and renilla plasmid for transfection efficiency. Forty eight hours following transfection, cells were exposed to increased concentrations (0 to 20 μM) of C19H24N3O5S5Pr for 18 hours. PPARγ activity was calculated as luciferase RLU/renilla/μg total protein.

RhoB = RhoB induction after preincubation with PPAR-γ antagonist; settings: SHEP-1 cells, 10 uM GW9662 for 2 hours, then 10 uM C19H24N3O5S5Pr for 4 hours
Experimental: SHEP-1 cancer cells were preincubated with 10 uM GW9662, a pharmacological PPAR-γ antagonist that was able to abrogate the induction of RhoB protein by C19H24N3O5S5Pr, or vehicle control for 2 hours before being exposed to 10 uM of C19H24N3O5S5Pr for 4 hours.

Cn1cnc(N)c2ncnc1-2 [3MA, 3-methyl adenine, reference compound]
cell morphology after 3MA preincubation followed by C19H24N3O5S5Pr [1]: did not demonstrate this death-like morphology | LC3 II levels induced by C19H24N3O5S5Pr after 3MA preincubation (LC3 II): LC3 II levels were reduced

CCCCC/C=C/C=C1/C(=O)C=CC1C/C=C\CCCC(=O)O (stereo not shown) [15dPGJ2, 15-deoxy-Delta-12,14, prostaglandin, reference compound]
PPARγ activation (luciferase RLU/renilla/μg total protein) (PPARγ): did not display any PPARγ activation

O=C(Nc1ccccc1)c1cc([N+](=O)[O-])ccc1Cl [GW9662]
RhoB expression induced by C19H24N3O5S5Pr after antagonist preincubation (RhoB): RhoB was not expressed
